Experimental data from patent US12102619B2 (Jazz Pharmaceuticals Research UK Limited, priority 2020, dated 2024).
Where two headings read alike, the source gives them in different places.

Assays:
BSEP = BSEP (Homo sapiens, UniProt O95342); assay: Inhibition of BSEP-mediated transport; assay type: in vitro ADME; conditions: at clinically relevant concentrations
From the text: (§1) The pharmacological properties of CBD are not fully elucidated. […] 7-COOH-CBD is an inhibitor of transport mediated via BCRP and BSEP at clinically relevant concentrations.

BCRP = molecular target: T1, BCRP (Homo sapiens, UniProt Q9UNQ0); assay: Inhibition of BCRP-mediated transport; assay type: in vitro ADME; conditions: at clinically relevant concentrations
T1 sequence (Q9UNQ0 1-655): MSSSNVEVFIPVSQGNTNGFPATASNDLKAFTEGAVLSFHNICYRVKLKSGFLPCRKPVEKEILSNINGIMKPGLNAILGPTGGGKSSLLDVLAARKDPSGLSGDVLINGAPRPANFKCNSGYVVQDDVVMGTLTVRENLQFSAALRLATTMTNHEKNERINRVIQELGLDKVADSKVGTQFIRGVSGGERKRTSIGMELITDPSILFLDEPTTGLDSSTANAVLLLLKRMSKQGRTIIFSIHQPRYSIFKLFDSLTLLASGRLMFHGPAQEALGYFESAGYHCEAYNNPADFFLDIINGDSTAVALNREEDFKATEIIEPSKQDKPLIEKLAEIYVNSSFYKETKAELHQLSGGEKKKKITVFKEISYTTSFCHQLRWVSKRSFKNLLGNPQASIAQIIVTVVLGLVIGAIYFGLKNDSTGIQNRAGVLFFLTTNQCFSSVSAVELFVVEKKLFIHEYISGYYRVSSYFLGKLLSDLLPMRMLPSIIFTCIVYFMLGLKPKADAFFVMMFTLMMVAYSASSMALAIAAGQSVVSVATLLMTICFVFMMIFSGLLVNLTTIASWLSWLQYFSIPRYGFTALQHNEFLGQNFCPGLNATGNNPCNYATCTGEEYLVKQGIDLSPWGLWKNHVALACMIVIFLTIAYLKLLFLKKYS
From the text: as §1

P-gp = P-gp (Homo sapiens, UniProt P08183); assay: P-gp substrate status of the CBD metabolite; assay type: in vitro ADME
From the text: as §1

[1] = Clinical DDI study of steady-state CBD with orally dosed midazolam (GWEP17028); assay type: in vivo; conditions: CBD at steady-state (750 mg bid, fed state), dosed concomitantly
From the text: The everolimus label contains no instructions to adjust the dose when administered with a P-gp inhibitor that is not also a moderate or strong CYP3A4 inhibitor.

[2] = Steady state AUC of CBD by daily dose; conditions: human, in vivo
From the text: In some embodiments, the AUCt1-t2 is reported as a geometric mean (% coefficient of variation).

[3] = Adverse effects of elevated CBD levels; assay type: in vivo
From the text: Transaminase can lead to hepatic dysfunction, including unexplained nausea, vomiting, right upper quadrant abdominal pain, fatigue, anorexia, or jaundice and/or dark urine. Elevated exposure of everolimus exposure is known to cause non-infectious pneumonitis, infections, severe hypersensitivity to reactions, angioedema, stomatitis, renal failure, impaired wound healing, metabolic disorders, myelosuppression, risk of infection or reduced immune response with vaccination, embryo-fetal toxicity, and stomatis, respiratory tract infection. The methods of the disclosure reduce the incidence of one or more of the above side effects.

[4] = coadministered P-gp and CYP3A4 inhibitor; cited from earlier work
CYP3A4 = CYP3A4 (Homo sapiens, UniProt P08684); conditions: oral dose of midazolam coadministered; cited from earlier work
[5] = once-daily dosing; cited from earlier work
clinical = conditions: human, in vivo, 5 mg
From the text: The duration of the trial was approximately 9 weeks, which includes a screening period (up to 4 weeks), a treatment period (18 days) and a safety follow-up period (2 weeks). After signing the informed consent form (ICF), participants enter the screening period (Day −28 to −1). On Day −1, screened participants who continued to meet eligibility criteria were admitted to the clinical research unit (CRU) at approximately […] and enrolled into the trial. On Day 1, participants received everolimus, 30 minutes after starting a standard meal. […] On Day 18, participants were discharged from the CRU once all assessments were completed.
The time of the meal consumed at the site during days of IMP administration was recorded, as was the dose and dosing time of IMP (as appropriate) relative to sampling times.
Log transformed Cmax, AUC(0-∞), and AUC(0-t) parameters for everolimus were analyzed using a linear mixed-effects model with a fixed effect for treatment and a random effect for participant. The treatment differences are back transformed to present the ratios of geometric means and the corresponding 90% confidence intervals (CIs).

[6] = cited from earlier work

Chain of CYP3A4 (P08684 whole entry): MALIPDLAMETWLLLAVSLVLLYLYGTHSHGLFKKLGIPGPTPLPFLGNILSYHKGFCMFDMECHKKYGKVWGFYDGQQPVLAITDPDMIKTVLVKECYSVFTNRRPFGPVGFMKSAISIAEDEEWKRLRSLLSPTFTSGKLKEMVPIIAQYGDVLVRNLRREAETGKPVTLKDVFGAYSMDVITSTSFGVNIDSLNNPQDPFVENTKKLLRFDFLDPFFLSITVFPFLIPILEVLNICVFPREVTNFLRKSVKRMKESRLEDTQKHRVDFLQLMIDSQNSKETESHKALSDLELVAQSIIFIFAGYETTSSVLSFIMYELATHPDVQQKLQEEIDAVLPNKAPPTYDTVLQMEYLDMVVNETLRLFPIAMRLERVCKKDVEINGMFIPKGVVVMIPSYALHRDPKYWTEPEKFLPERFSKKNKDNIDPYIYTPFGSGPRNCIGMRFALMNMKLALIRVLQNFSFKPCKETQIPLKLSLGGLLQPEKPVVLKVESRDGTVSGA
Chain of BSEP (O95342 whole entry): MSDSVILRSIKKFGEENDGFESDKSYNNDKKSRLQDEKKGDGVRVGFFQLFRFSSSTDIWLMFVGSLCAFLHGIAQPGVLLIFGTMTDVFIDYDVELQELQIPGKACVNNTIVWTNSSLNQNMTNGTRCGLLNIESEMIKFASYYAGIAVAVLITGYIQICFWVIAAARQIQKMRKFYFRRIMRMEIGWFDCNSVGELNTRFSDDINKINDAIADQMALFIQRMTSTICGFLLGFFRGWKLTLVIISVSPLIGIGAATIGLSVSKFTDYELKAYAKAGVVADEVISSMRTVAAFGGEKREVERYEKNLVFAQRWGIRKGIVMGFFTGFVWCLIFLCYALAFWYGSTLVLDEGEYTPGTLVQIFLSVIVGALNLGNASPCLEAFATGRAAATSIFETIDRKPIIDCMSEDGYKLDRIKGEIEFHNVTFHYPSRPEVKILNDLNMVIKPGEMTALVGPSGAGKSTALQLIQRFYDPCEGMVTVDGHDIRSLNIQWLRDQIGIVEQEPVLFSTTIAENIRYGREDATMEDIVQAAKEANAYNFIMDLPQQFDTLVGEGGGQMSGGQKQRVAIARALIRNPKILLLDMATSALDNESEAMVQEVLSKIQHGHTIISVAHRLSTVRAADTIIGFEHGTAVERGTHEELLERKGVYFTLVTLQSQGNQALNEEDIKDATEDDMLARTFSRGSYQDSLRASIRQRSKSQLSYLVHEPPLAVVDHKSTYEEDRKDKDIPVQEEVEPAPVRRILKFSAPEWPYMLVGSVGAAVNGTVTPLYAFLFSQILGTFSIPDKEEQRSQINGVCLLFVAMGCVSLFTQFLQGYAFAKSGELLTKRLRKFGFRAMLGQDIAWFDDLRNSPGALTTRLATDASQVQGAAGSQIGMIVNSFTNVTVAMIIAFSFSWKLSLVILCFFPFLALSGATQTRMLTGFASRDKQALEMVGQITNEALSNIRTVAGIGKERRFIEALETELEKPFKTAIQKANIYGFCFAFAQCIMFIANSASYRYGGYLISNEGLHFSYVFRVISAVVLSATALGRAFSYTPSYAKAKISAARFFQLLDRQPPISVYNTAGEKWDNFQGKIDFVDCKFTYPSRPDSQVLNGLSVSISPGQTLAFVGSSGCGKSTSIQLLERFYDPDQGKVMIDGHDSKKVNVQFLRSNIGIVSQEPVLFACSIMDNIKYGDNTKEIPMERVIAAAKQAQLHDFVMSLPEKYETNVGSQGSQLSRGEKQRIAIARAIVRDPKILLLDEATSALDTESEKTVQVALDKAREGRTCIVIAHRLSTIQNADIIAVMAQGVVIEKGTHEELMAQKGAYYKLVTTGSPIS
Chain of P-gp (P08183 whole entry): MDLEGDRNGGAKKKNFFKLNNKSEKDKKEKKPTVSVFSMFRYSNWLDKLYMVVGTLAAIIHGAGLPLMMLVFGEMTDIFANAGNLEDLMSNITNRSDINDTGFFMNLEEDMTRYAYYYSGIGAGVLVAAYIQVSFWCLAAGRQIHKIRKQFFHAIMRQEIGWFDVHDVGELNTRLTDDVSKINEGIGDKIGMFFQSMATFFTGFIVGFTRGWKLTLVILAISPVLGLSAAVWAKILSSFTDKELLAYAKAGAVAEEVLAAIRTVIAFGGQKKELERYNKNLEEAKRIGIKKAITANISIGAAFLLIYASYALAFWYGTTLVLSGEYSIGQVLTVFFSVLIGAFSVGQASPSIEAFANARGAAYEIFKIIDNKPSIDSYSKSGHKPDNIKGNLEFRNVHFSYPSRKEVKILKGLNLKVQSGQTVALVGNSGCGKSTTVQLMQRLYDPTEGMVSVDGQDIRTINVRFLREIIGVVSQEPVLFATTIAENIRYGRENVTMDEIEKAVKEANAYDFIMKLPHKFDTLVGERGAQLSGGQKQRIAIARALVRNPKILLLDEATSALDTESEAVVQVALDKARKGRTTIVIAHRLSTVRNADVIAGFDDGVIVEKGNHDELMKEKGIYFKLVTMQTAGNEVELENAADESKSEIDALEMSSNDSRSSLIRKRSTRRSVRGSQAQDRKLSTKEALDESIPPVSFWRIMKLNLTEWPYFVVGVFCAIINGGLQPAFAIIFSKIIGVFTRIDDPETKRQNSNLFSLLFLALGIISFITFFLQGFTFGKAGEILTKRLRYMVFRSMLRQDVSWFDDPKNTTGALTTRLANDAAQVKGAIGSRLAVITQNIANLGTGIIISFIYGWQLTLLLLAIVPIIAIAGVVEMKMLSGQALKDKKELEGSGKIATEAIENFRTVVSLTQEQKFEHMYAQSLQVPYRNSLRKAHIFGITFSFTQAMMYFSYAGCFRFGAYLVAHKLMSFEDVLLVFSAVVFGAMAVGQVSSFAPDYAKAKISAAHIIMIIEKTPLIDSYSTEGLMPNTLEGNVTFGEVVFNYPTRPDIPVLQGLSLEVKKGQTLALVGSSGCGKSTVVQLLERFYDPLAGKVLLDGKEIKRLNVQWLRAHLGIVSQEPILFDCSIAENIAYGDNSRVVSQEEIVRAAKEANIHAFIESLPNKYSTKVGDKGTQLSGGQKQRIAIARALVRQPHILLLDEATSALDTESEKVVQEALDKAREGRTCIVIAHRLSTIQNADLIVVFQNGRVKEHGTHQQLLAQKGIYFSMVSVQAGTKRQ

Question: Which “Inhibition of transport mediated via BSEP” value (BSEP) does the source give for `C=C(C)[C@@H]1CCC(C(=O)O)=C[C@H]1c1c(O)cc(CCCCC)cc1O` [7-COOH-CBD, 7-carboxy-cannabidiol] here?
Answer: inhibitor

Question: And the “Inhibition of transport mediated via BCRP” value (BCRP)?
Answer: inhibitor

Question: What about the P-gp substrate status (P-gp) of the same compound?
Answer: substrate for P-gp

Question: Which results are given for `C=C(C)[C@@H]1CCC(C)=C[C@H]1c1c(O)cc(CCCCC)cc1O` [CBD, Cannabidiol]?
Answer: Effect on orally dosed midazolam PK parameters [1]: no clinically significant effect; AUC(0-t) ([2]; 5 mg/kg/day): 241 ng·h/mL; AUC(0-t) ([2]; 10 mg/kg/day): 722 ng·h/mL; AUC(0-t) ([2]; 20 mg/kg/day): 963 ng·h/mL; AUC ([2]; 25 mg/kg/day): 2520 ng·h/mL; AUC ([2]; 50 mg/kg/day): 2730 ng·h/mL; Adverse effects caused by elevated levels [3]: transaminase elevation, rash, somnolence, sedation, lethargy, diarrhea, pyrexia, weight decreased, nasopharyngitis, irritability, oropharyngeal pain, and decreased appetite

Question: Which “Increase of the AUC of everolimus” value [4] does the source give for `CC[C@H]1OC(=O)[C@H](C)[C@@H](O[C@H]2C[C@@](C)(OC)[C@@H](O)[C@H](C)O2)[C@H](C)[C@@H](O[C@@H]2O[C@H](C)C[C@H](N(C)C)[C@H]2O)[C@](C)(O)C[C@@H](C)C(=O)[C@H](C)[C@@H](O)[C@]1(C)O` [Erythromycin] here?
Answer: 4.4 fold

Question: What about the “Increase of the Cmax of everolimus” value [4] of the same compound?
Answer: 2.0 fold

Question: For `CO[C@H]1C[C@@H]2CC[C@@H](C)[C@@](O)(O2)C(=O)C(=O)N2CCCC[C@H]2C(=O)O[C@H]([C@H](C)C[C@@H]2CC[C@@H](OCCO)[C@H](OC)C2)CC(=O)[C@H](C)/C=C(\C)[C@@H](O)[C@@H](OC)C(=O)[C@H](C)C[C@H](C)/C=C/C=C/C=C/1C` [Everolimus], which “Increase in midazolam AUC0-inf” value (CYP3A4) is on record?
Answer: 30%

Question: And the “Increase in midazolam Cmax” value (CYP3A4)?
Answer: 25%

Question: And the Time to steady-state [5]?
Answer: ≤ 2 weeks

Question: And the AUC(0-inf) (clinical)?
Answer: 216 ng·h/mL

Question: And the AUC(0-t) (clinical)?
Answer: 95 ng·h/mL

Question: And the Cmax (clinical)?
Answer: 18 ng/mL

Question: And the “Everolimus AUC24, geometric mean±SD” value ([6]; 2.5 mg of everolimus)?
Answer: 570 ± 195 ng·h/mL

Question: What about the “Everolimus Cmaxss, geometric mean±SD” value ([6]; 2.5 mg of everolimus) of the same compound?
Answer: 62.1 ± 13.1 ng/mL

Question: And the “Everolimus Cminss, geometric mean±SD” value ([6]; 2.5 mg of everolimus)?
Answer: 13.6 ± 9.0 ng/mL

Question: And the “Everolimus AUC24, geometric mean±SD” value ([6]; 5 mg of everolimus)?
Answer: 716 ± 123 ng·h/mL

Question: What about the “Everolimus Cmaxss, geometric mean±SD” value ([6]; 5 mg of everolimus) of the same compound?
Answer: 114 ± 36 ng/mL

Question: And the “Everolimus Cminss, geometric mean±SD” value ([6]; 5 mg of everolimus)?
Answer: 17.4 ± 4.5 ng/mL

Question: What about the “Everolimus tmax, median (range)” value ([6]; 5 mg of everolimus) of the same compound?
Answer: 48 min

Question: What about the “Everolimus AUC24” value ([6]; 10 mg of everolimus) of the same compound?
Answer: 1470 ng·h/mL

Question: What about the “Everolimus Cmaxss” value ([6]; 10 mg of everolimus) of the same compound?
Answer: 139 ng/mL

Question: What about the “Everolimus Cminss” value ([6]; 10 mg of everolimus) of the same compound?
Answer: 16.5 ng/mL

Question: Which “Increase of the AUC of everolimus” value [4] does the source give for `CC(=O)N1CCN(c2ccc(OCC3COC(Cn4ccnc4)(c4ccc(Cl)cc4Cl)O3)cc2)CC1` (stereo not drawn) [ketoconazole] here?
Answer: 15 fold

Question: What about the “Increase of the Cmax of everolimus” value [4] of the same compound?
Answer: 3.9 fold
